Consider 5 compounds from patent publication US7687547B2, “Diphenyl ether antimicrobial compounds” (Research Foundation of State University of New York, priority 2004, dated 2010).

Test [1] addresses InhA (Mycobacterium tuberculosis, UniProt P9WGR1). In words: InhA enzyme inhibition IC50 (NADH oxidation at 340 nm, DD-CoA substrate). In kind it is biochemical, M. tuberculosis.
Experimental: IC50 values were determined by measuring the enzyme activity at different inhibitor concentrations. The experimental data were analyzed using Equation 1, where I is the inhibitor concentration and Y is fraction activity. Y=1/(1+[I]/IC50) (1)
All experiments were carried out on a CARY-100 Bio (Varian) spectrophotometer at 25° C. The buffer used was 30 mM PIPES, 150 mM NaCl, pH 6.8. Kinetic parameters were determined spectrophotometrically by following the oxidation of NADH to NAD^+ at 340 nm (ε=6.3 nM^−1 cm^−1). Trans-2-dodecenoyl-CoA (DD-CoA) was used as a substrate. Two sets of conditions were used for the IC50 determinations.
For inhibitors with IC50 values above 0.2 μM, reaction mixtures contained 250 μM NADH, 74 nM InhA, and 25 μM DD-CoA. […] In each case, the inhibitor concentration was varied over the range of 0-200 μM.
The subject of test [2] is Mycobacterium tuberculosis strain H37Rv. In words: MIC99 microplate dilution growth inhibition. In kind it is cell-based. The note with it: M. tuberculosis H37Rv, 7H9 broth, 37° C., 3-5 days, lowest concentration inhibiting visible growth.
The mark [3] stands for this setting: InhA, 250 μM NADH, DD-CoA substrate, 25° C., pH 6.8, read-out: IC50.

Molecules are shown by their SMILES. Values after ≈ are worked out from the molar mass of the structure shown. Read-outs that look alike come from different tables or passages of the source.

InhA, sequence (P9WGR1 whole entry, looked up): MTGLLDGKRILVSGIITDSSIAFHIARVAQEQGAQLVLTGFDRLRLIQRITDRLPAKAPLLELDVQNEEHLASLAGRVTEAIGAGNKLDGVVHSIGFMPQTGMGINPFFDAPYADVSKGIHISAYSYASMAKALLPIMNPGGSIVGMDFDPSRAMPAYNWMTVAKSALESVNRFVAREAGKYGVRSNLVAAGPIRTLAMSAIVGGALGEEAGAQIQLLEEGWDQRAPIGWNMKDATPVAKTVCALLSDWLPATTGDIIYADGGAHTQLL

What is called IC50 is the concentration that gives 50% inhibition. One may read the MIC99 as the lowest concentration that inhibits either 99% of growth or 99% of the strains tested, depending on the study. A higher MIC99 goes with lower susceptibility. Take `CCCCc1ccc(Oc2ccccc2)c(O)c1` [-(n-C4H9), 5-butyl-2-phenoxyphenol]: the IC50 in test [1] (setting [3]) worked out at 80 nM. In addition, the MIC99 in test [2] came out at 0.93 µM (≈ 0.225 µg/mL).

Turning to `CCCCCc1ccc(Oc2ccccc2)c(O)c1` [-(n-C5H11), 5-pentyl-2-phenoxyphenol], the IC50 in test [1] (setting [3]) turned out to be 17 nM. In addition, the MIC99 in test [2] is 0.93 µM (≈ 0.238 µg/mL). `CCCCCCc1ccc(Oc2ccccc2)c(O)c1` [-(n-C6H13), 5-hexyl-2-phenoxyphenol]: the IC50 in test [1] amounted to 10 nM. In test [2], this compound gave an MIC99 of 0.93 µM (≈ 0.251 µg/mL). As to `CCCCCCCCc1ccc(Oc2ccccc2)c(O)c1` [-(n-C8H17), 5-octyl-2-phenoxyphenol], in test [1] (setting [3]), the concentration for half-maximal inhibition (IC50) was found to be 5 nM.

In the case of `CCc1ccc(Oc2ccccc2)c(O)c1` [—C2H5, 5-ethyl-2-phenoxyphenol], the concentration for half-maximal inhibition (IC50) in test [1] (setting [3]) was found to be 2000 nM. Besides, the MIC99 in test [2] was 3.75 µM (≈ 0.803 µg/mL).
